Measurements from paper PMC7318222, “A Family of Water‐Immiscible, Dipolar Aprotic, Diamide Solvents from Succinic Acid” (Chemsuschem, 2020).

How the values were obtained:
[1] = shake flask; GC analysis of both layers with diglyme internal standard (SI); conditions: not told
Nrf2 = Nrf2 CALUX assay (oxidative stress); type: cell-based, human; design: key: –: no effect observed up to the highest test concentration; conditions: cell signaling pathway assay, 24 h exposure
Description: Six of the CALUX assays (TCF through p53) detect activation of several cellular signaling pathways, which are indicative of general stress and acute toxicity, but also a range of more specific types of toxicity, including reproductive toxicity. […]
DCM ≥99.5%, chloroform ≥99.5%, DMSO ≥99.0% were purchased from VWR. […]
(§1) Polyarylethersulfone of 55,000 Da were obtained from INGE.BASF, Germany. The CALUX cell lines have been described previously.[1] They are based on human U2-OS cells (ATCC, HTB-96) stably transfected with an expression construct for the full-length human receptor under investigation, and a reporter construct consisting of multimerized responsive elements for the cognate receptor coupled to a minimal promoter element (TATA) and a luciferase gene. Cells were maintained as described previously,[2] using cell culture media and supplements from Fisher Scientific as described in the experimental procedures section. […]
(§2) In vitro reporter gene assays
(§3) The automated CALUX assays were carried out similarly as described earlier,[12] with some adaptations. In brief, the assay was performed in CO2 independent medium (Fisher Scientific, […]
(§4) supplement (Fisher Scientific, 11574466), 10 U/mL penicillin and 10 µg/mL streptomycin. A cell suspension in assay medium was made of 1 × 10^5cells/mL, and white 384-wells plates were seeded with 30 µl cell suspension/well. After 24 h, exposure medium was prepared. A dilution series in 0.5log unit increments of each test compound (in DMSO) was added to a 96-wells plate containing assay medium (2% v/v). Of this exposure mixture, 30 µl was added to the assay plates containing the CALUX cells, resulting in a final DMSO concentration of 1%. Additionally, DMSO blanks and a full dose response curve of the relevant reference compound were included on each plate. All samples were tested in triplicate. The preparation of the compound dilution series as well as the exposure of the cells were performed on a Hamilton StarLET liquid handling robot coupled to a Cytomat incubator.
Directly after exposure, plates were sealed with non-breathing plate seals (Plate sealer, easy seal transparent; Greiner-Bio-One, 676001). After 24 h the exposure medium was removed using an EL406 washer-dispenser (BioTek) and 10 µl/well triton lysisbuffer was added by the EL406.
(§5) Subsequently, the luciferase signal was measured in a luminometer (InfinitePro coupled to a Connect Stacker, both TECAN). In order to be able to detect receptor antagonism, several assays were also performed in antagonistic mode. The assay procedure was as described above, with the only exception that the EC50 concentration of the reference agonist was present during the exposure.
The luminometer data was analysed as follows; the average of the triplicate wells was determined, and the average blank (DMSO) value was subtracted. For receptor-based assays the maximum response elicited by the reference compound was set to 100% (full receptor- or pathway activation), and the other values were scaled accordingly. GraphPad Prism was used to fit a sigmoidal curve through the data (four parameters, variable slope). […] For antagonist- and cytotoxicity experiments, PC20 values were determined instead, which was defined as the concentration where the test compound causes a 20% decrease in the basal signal, which was […]
curve, the signal induction above background (DMSO) was determined, and the concentration where the compound elicited a 1.5-fold increase above background was used as LEC.

AR = target: T1, AR (Homo sapiens, UniProt P10275); experiment: AR-anti CALUX reporter gene assay (antagonistic mode); type: cell-based; design: key: –: no effect observed up to the highest test concentration; conditions: PC20, 24 h exposure
T1 construct: expression construct for the full-length human receptor under investigation; expressed in transfected cells; host or cells: human U2-OS cells (ATCC HTB-96), stably transfected
T1 sequence (P10275 1-920): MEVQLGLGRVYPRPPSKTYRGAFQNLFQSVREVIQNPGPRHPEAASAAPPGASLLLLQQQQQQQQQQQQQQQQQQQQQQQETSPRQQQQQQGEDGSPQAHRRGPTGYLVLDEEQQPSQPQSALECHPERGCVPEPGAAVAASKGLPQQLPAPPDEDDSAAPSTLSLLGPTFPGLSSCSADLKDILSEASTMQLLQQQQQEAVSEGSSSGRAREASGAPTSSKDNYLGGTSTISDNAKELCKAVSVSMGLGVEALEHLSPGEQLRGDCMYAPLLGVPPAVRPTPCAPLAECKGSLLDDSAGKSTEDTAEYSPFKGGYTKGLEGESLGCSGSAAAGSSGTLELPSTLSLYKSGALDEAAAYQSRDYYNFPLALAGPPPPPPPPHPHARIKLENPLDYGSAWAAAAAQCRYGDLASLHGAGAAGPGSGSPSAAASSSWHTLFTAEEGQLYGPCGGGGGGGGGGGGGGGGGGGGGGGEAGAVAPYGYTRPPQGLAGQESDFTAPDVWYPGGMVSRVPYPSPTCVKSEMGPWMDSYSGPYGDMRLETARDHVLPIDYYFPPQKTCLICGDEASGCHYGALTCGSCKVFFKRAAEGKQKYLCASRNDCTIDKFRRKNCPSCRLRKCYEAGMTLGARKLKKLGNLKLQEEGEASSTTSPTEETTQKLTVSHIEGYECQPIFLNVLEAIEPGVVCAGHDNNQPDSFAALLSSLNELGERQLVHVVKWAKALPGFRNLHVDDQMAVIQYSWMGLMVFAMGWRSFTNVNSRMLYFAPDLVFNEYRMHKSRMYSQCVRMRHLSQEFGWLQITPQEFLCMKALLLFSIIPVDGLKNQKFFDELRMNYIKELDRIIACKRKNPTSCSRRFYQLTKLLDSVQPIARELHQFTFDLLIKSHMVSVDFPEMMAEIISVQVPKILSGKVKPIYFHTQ
Description: as §1, §2, §3
as §4, with “with” for “supplement (Fisher Scientific, 11574466), 10 U/mL penicillin and 10 µg/mL streptomycin. A cell suspension in assay medium was made of 1 × 10^5cells/mL, and white 384-wells plates were seeded with”
Directly after exposure, plates were sealed with non-breathing plate seals (Plate sealer, easy seal […]
After 24 h the exposure medium was removed using an EL406 washer-dispenser (BioTek) and 10 µl/well triton lysisbuffer was added by the EL406.
as §5
The luminometer data was analysed as follows; the average of the triplicate wells was determined, […]

Compound | log partition 1-octanol / water [1] | LEC Nrf2 (Nrf2) | LEC AR‐anti (AR)
CCCCN(CC)C(=O)CCC(=O)N(CC)CCCC [EBSA, N,N′‐diethyl‐N,N′‐dibutylsuccindiamide] | 2.72 log10 of concentration ratio (GC peak-area ratio) | – | –
CCCCN(C)C(=O)CCC(=O)N(C)CCCC [MBSA, N,N′‐dimethyl‐N,N′‐dibutylsuccindiamide] | 1.65 log10 of concentration ratio (GC peak-area ratio) | −2.9 Log M | –
CCCCN1CCCC1=O [NBP, N‐Butylpyrrolidinone, reference compound] | 0.99 log10 of concentration ratio (GC peak-area ratio) | – | –
CN1CCCC1=O [NMP, N‐methyl‐2‐pyrrolidone, reference compound] |  | – | 
CCCCN(CCCC)C(=O)CCC(=O)N(CCCC)CCCC [TBSA, N,N,N′,N′‐tetrabutylsuccindiamide] | 3.77 log10 of concentration ratio (GC peak-area ratio) | – | –
